Laboratory results reported in patent US12624044B2, “SMARCA degraders and uses thereof” (Kymera Therapeutics, Inc., priority 2019, dated 2026).

How the values were obtained:
Type in all cases: cell-based
SMARCA4 = biological target: T1, SMARCA4 (Homo sapiens, UniProt P51532); assay: SMARCA4 Western blot MV4-11 degradation; settings: 24 h; for Dmax: MV4-11, MV4-11 cells, read-out: SMARCA4 WB MV411 degradation 24 h: Average Dmax %; for DC50: MV4-11 cells, read-out: SMARCA4 WB MV411 degradation 24 h: Average external-Abs DC50
T1 construct: SMARCA2 and SMARCA4 protein degradation in MV4-11 cells; endogenous in cells; host or cells: MV4-11
T1 sequence (P51532 whole entry): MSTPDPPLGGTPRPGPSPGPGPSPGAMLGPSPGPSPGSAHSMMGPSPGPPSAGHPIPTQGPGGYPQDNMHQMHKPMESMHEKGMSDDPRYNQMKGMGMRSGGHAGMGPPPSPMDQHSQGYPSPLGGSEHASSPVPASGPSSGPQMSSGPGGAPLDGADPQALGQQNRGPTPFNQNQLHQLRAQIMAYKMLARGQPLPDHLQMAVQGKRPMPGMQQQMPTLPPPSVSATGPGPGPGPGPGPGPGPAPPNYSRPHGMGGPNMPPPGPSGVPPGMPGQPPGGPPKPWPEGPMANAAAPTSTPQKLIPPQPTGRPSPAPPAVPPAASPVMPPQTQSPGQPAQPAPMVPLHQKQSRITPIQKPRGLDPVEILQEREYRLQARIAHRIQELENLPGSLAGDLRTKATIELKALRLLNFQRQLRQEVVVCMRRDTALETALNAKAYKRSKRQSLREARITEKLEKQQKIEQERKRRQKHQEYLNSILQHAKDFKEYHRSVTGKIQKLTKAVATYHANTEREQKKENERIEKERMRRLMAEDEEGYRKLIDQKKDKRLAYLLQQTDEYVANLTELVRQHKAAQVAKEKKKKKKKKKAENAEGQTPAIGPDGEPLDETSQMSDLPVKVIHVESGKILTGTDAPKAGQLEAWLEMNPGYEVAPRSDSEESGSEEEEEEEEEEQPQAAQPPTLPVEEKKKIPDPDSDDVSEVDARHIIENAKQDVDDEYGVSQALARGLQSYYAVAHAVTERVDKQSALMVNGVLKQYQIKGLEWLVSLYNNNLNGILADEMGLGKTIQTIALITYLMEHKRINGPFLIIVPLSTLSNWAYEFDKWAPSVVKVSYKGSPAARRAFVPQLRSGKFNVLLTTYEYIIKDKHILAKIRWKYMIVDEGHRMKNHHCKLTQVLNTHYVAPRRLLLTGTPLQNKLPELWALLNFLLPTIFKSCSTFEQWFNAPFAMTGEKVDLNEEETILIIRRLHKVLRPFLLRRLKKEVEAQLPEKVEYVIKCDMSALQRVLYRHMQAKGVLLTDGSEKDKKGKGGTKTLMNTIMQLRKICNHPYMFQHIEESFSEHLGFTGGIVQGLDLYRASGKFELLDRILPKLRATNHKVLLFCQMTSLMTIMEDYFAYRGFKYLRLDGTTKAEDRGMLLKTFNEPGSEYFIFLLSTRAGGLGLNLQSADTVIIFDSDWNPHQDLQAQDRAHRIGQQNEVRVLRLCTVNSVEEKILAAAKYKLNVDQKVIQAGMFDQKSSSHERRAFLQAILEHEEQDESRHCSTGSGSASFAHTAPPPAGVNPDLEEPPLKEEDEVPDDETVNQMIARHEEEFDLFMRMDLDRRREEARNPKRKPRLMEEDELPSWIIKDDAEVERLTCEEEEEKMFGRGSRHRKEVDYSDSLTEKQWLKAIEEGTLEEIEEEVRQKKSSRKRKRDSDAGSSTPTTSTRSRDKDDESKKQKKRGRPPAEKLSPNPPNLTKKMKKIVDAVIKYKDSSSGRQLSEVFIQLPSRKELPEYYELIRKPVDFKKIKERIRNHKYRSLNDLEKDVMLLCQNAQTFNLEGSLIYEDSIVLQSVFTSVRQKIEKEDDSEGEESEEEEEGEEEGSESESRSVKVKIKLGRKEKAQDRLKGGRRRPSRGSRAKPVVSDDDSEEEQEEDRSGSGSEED
Method: Cells were seeded into 6-well plates (MV4-11: 4×10^6 cells/well/1 ml) and 1 ml of 2× compound solution was added into the well to make the final concentration and the plates were mixed well and incubated for 24 hours (No cytotoxicity was observed). The cell were collected with media and spun at 3000 rpm for 5 minutes. The supernatant was aspirated and the well and the cells were washed with cold PBS once and combined for centrifugation again; the supernatant aspirated again. 200 ul pre-chilled RIPAlysis buffer (Boston BioProducts BP-115D) with protease/phosphatase inhibitor (Roche 05892791001/Roche 04906837001) was directly added into the tube to lyze the cells for 20 minutes on ice. The cell lysate were collected into EP tubes and spun at 13000 rpm for 20 minutes and 72 ul supernatant was transferred to a fresh EP tube containing 18 ul of 5× loading buffer (Beyotime Bio P0015) to make the loading samples. The samples were heated to 100° C. for 10 minutes and cooled to RT and microcentrifuged. 20 ul of samples were loaded onto SDS-PAGE gel (Novex, WG1402BOX) and the gel was run at 80 V for 20 minutes and 120 V for 1.5 hours. The samples were electrotransfer to a NC membrane using wet-transfer method with 250 mA for 2.5 hours. The membrane was blocked with LICOR blocking buffer (LI-COR, 927-50000) for 1 hour. The membrane was washed three times with TBST (CST #9997S), 5 minutes each. Incubation was performed with primary antibody prepared in blocking buffer with 0.1% Tween-20 (Solarbio, P8220) at 4° C. overnight (Anti-SMARCA2/BRM antibody (ab15597) 1:500; Anti-BRG1 antibody [EPR3912] (ab108318) 1:1000; Rabbit anti-Baf180 antibody [EPR15860] (Abcam, ab196022) 1:1000; mouse anti-beta-Actin (8H10D10) (CST #3700) 1:10000). The membrane was washed three times with TBST, 5 minutes each. Incubation with secondary antibody was performed for 1 hour at RT (anti-rabbit IgG (Licor, 926-32211) 1:5000; anti-mouse IgG (LI-COR, 926-68070) 1:5000). The membrane was washed three times with TBST, 5 minutes each and lastly the LiCOR was read.
The letter codes for the percentage of SMARCA degradation after 24 hours (Dmax %) include: A (>90% degradation), B (>70-90% degradation), C (50-70% degradation), and D (<50% degradation).

SMARCA2 [1] = biological target: T2, SMARCA2 (Homo sapiens, UniProt P51531); assay: MSD SMARCA2 degradation in NCI-H1299 cell line (24 h); parameters: HC: NCI-H1299 cells treated with DMSO; host or cells: NCI-H1299; settings: for Dmax: NCI-H1299, NCI-H1299 cells; for DC50: NCI-H1299 cells, read-out: SMARCA2 MSD H1299 degradation 24 h: External Abs-DC50
T2 sequence (P51531 whole entry): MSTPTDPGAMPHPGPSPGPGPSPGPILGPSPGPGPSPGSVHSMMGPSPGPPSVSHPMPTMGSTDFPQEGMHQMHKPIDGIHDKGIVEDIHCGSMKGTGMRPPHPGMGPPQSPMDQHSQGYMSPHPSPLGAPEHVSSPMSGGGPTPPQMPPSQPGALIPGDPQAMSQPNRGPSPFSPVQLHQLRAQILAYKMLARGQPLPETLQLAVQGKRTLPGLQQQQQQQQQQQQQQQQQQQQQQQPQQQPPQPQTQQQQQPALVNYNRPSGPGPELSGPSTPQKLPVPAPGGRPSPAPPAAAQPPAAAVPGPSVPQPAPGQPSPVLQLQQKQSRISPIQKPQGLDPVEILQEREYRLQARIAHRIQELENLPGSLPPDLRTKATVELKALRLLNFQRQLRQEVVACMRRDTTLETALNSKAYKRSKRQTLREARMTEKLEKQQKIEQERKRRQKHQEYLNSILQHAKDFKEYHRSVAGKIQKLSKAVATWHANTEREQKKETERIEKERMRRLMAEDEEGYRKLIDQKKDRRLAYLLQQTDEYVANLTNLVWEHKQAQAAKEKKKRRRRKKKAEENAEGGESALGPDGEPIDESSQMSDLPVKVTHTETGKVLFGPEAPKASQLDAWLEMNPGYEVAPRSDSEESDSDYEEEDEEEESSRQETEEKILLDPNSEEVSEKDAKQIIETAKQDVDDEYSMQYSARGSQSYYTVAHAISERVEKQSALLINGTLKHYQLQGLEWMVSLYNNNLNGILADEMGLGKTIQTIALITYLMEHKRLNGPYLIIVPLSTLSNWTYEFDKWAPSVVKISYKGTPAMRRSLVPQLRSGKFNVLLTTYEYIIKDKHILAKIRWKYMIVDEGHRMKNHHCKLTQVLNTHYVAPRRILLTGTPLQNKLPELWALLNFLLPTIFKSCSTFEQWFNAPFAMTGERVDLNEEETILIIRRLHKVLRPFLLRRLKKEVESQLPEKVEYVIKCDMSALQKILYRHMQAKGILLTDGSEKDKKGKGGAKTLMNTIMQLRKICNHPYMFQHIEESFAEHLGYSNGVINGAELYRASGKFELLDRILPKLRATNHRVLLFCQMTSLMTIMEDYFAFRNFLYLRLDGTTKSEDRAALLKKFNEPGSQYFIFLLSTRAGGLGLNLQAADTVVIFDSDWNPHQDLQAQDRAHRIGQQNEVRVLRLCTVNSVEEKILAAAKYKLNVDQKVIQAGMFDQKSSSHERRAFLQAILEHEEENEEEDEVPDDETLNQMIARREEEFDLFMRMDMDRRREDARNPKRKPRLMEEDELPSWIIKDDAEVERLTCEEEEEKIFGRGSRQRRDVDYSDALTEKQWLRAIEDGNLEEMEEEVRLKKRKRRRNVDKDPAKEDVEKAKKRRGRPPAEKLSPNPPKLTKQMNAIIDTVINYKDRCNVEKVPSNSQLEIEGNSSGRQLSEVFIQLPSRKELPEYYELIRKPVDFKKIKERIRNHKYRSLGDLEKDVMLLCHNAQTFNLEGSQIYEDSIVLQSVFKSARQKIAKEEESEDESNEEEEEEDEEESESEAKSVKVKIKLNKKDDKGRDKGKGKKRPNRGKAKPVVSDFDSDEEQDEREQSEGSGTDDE
Outline: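 NCI-H1299 cells treated 24 h with a 3-fold, 9-point compound dilution series, then lysed in RIPA with protease inhibitor. SMARCA2 in lysate-coated MSD plates detected with rabbit anti-SMARCA2 (0.3 ug/ml) and SULFO-TAG secondary. Relative SMARCA2 level normalized between DMSO-treated H1299 cells and SMARCA2-negative A2780 cells; Dmax % binned A–D.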

SMARCA2 [2] = biological target: T2, SMARCA2; assay: MSD SMARCA2 degradation in A549 cell line; settings: 24 h; for Dmax: A549, A549 cells; for DC50: A549 cells, read-out: SMARCA2 MSD A549 degradation 24 h: Average external-Abs DC50
Outline: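 A549 cells treated 24 h with compound at final 0.152-1000 nM (3-fold series, DMSO control). Lysates analyzed by MSD immunoassay using anti-SMARCA2/BRM detection and SULFO-TAG secondary antibodies; maximal degradation (Dmax %) reported as letter bins.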

CN(Cc1cnc(N2C3CCC2CN(c2cc(-c4ccccc4O)nnc2N)C3)nc1)CC1CCN(c2ccc3c(c2)n(C)c(=O)n3C2CCC(=O)NC2=O)CC1 (centres unmarked) [I-282, 3-(5-(4-((((2-(3-(3-amino-6-(2-hydroxyphenyl)pyridazin-4-yl)-3,8-diazabicyclo[3.2.1]octan-8-yl)pyrimidin-5-yl)methyl)(methyl)amino)methyl)piperidin-1-yl)-3-methyl-2-oxo-2,3-dihydro-1H-benzo[d]imidazol-1-yl)piperidine-2,6-dione]
Dmax (SMARCA4): > 90% | DC50 (SMARCA4): < 0.1 µM | Dmax (SMARCA2 [1]): > 90% | DC50 (SMARCA2 [1]): < 0.1 µM

CN(CCCCCc1cnc(N2C3CCC2CN(c2cc(-c4ccccc4O)nnc2N)C3)nc1)Cc1ccc2c(c1)n(C)c(=O)n2C1CCC(=O)NC1=O (centres unmarked) [I-283]
Dmax (SMARCA4): > 90% | DC50 (SMARCA4): < 0.1 µM | Dmax (SMARCA2 [1]): > 90% | DC50 (SMARCA2 [1]): < 0.1 µM

Cn1c(=O)n(C2CCC(=O)NC2=O)c2ccc(CCC(=O)N3CCC(c4cnc(N5C6CCC5CN(c5cc(-c7ccccc7O)nnc5N)C6)nc4)CC3)cc21 (centres unmarked) [I-286]
Dmax (SMARCA4): > 90% | DC50 (SMARCA4): < 0.1 µM | Dmax (SMARCA2 [1]): 70 to 90% | DC50 (SMARCA2 [1]): 0.1 to 0.5 µM

Cn1c(=O)n(C2CCC(=O)NC2=O)c2ccc(CCCN3CCC(c4cnc(N5CCN(c6cc(-c7ccccc7O)nnc6N)CC5)nc4)CC3)cc21 (centres unmarked) [I-288]
Dmax (SMARCA4): > 90% | DC50 (SMARCA4): < 0.1 µM | Dmax (SMARCA2 [1]): > 90% | DC50 (SMARCA2 [1]): < 0.1 µM

Cn1c(=O)n(C2CCC(=O)NC2=O)c2ccc(CCCN3CCCC(c4cnc(N5C6CCC5CN(c5cc(-c7ccccc7O)nnc5N)C6)nc4)C3)cc21 (centres unmarked) [I-289]
Dmax (SMARCA4): 50 to 70% | DC50 (SMARCA4): < 0.1 µM | Dmax (SMARCA2 [1]): 70 to 90% | DC50 (SMARCA2 [1]): < 0.1 µM

Cn1c(=O)n(C2CCC(=O)NC2=O)c2cccc(CCCN3CCCC(c4cnc(N5C6CCC5CN(c5cc(-c7ccccc7O)nnc5N)C6)nc4)C3)c21 (centres unmarked) [I-292]
Dmax (SMARCA4): > 90% | DC50 (SMARCA4): < 0.1 µM | Dmax (SMARCA2 [1]): > 90% | DC50 (SMARCA2 [1]): < 0.1 µM

Cn1c(=O)n(C2CCC(=O)NC2=O)c2ccc(CCN3CCN(C(=O)c4cnc(N5C6CCC5CN(c5cc(-c7ccccc7O)nnc5N)C6)nc4)CC3)cc21 (centres unmarked) [I-293, 3-(5-(2-(4-(2-(3-(3-amino-6-(2-hydroxyphenyl)pyridazin-4-yl)-3,8-diazabicyclo[3.2.1]octan-8-yl)pyrimidine-5-carbonyl)piperazin-1-yl)ethyl)-3-methyl-2-oxo-2,3-dihydro-1H-benzo[d]imidazol-1-yl)piperidine-2,6-dione]
Dmax (SMARCA4): > 90% | DC50 (SMARCA4): < 0.1 µM | Dmax (SMARCA2 [1]): > 90% | DC50 (SMARCA2 [1]): < 0.1 µM

Cn1c(=O)n(C2CCC(=O)NC2=O)c2ccc(CC(=O)N3CCN(Cc4cnc(N5C6CCC5CN(c5cc(-c7ccccc7O)nnc5N)C6)nc4)CC3)cc21 (centres unmarked) [I-294]
Dmax (SMARCA4): > 90% | DC50 (SMARCA4): < 0.1 µM | Dmax (SMARCA2 [1]): > 90% | DC50 (SMARCA2 [1]): < 0.1 µM

Cn1c(=O)n(C2CCC(=O)NC2=O)c2ccc(C#CCCNC(=O)Cc3cnc(N4C5CCC4CN(c4cc(-c6ccccc6O)nnc4N)C5)nc3)cc21 (centres unmarked) [I-295]
Dmax (SMARCA4): < 50% | DC50 (SMARCA4): < 0.1 µM | Dmax (SMARCA2 [1]): < 50% | DC50 (SMARCA2 [1]): > 1 µM

Cn1c(=O)n(C2CCC(=O)NC2=O)c2ccc(CCCCNC(=O)Cc3cnc(N4C5CCC4CN(c4cc(-c6ccccc6O)nnc4N)C5)nc3)cc21 (centres unmarked) [I-296]
Dmax (SMARCA4): 70 to 90% | DC50 (SMARCA4): < 0.1 µM | Dmax (SMARCA2 [1]): > 90% | DC50 (SMARCA2 [1]): < 0.1 µM

Cc1ncsc1-c1ccc(CNC(=O)[C@@H]2C[C@@H](O)CN2C(=O)[C@@H](NC(=O)N2CCC3(CCC(c4cnc(N5C6CCC5CN(c5cc(-c7ccccc7O)nnc5N)C6)nc4)CC3)CC2)C(C)(C)C)cc1 [I-510]
Dmax (SMARCA2 [2]): > 90% | DC50 (SMARCA2 [2]): 0.1 to 0.5 µM

Cc1ncsc1-c1ccc(CNC(=O)[C@@H]2C[C@@H](O)CN2C(=O)[C@@H](NC(=O)C2(F)CC2)C2CCC(N(C)CCCC#Cc3cnc(N4C5CCC4CN(c4cc(-c6ccccc6O)nnc4N)C5)nc3)CC2)cc1 (some centres unmarked) [I-517]
Dmax (SMARCA2 [2]): 50 to 70% | DC50 (SMARCA2 [2]): 0.501 to 1 µM

Cc1ncsc1-c1ccc(CNC(=O)[C@@H]2C[C@@H](O)CN2C(=O)C(NC(=O)C2(F)CC2)C2CCC(N(C)CCCCCc3cnc(N4C5CCC4CN(c4cc(-c6ccccc6O)nnc4N)C5)nc3)CC2)cc1 (some centres unmarked) [I-519]
Dmax (SMARCA2 [2]): < 50% | DC50 (SMARCA2 [2]): > 1 µM

Cc1ncsc1-c1ccc(CNC(=O)[C@@H]2C[C@@H](O)CN2C(=O)C(NC(=O)C2(F)CC2)C2CCC(N(C)CCCCCCCc3cnc(N4C5CCC4CN(c4cc(-c6ccccc6O)nnc4N)C5)nc3)CC2)cc1 (stereo partly drawn) [I-520, (2S,4R)-1-[2-[4-[7-[2-[3-[3-amino-6-(2-hydroxyphenyl)pyridazin-4-yl]-3,8-diazabicyclo[3.2.1]octan-8-yl]pyrimidin-5-yl]heptyl-methyl-amino]cyclohexyl]-2-[(1-fluorocyclopropanecarbonyl)amino]acetyl]-4-hydroxy-N-[[4-(4-methylthiazol-5-yl)phenyl]methyl]pyrrolidine-2-carboxamide]
Dmax (SMARCA2 [2]): < 50% | DC50 (SMARCA2 [2]): > 1 µM

COCC(=O)N1CCCc2cc(OCC(=O)NCCCN3CCC(c4cnc(N5C6CCC5CN(c5cc(-c7ccccc7O)nnc5N)C6)nc4)CC3)ccc21 [I-526]
Dmax (SMARCA2 [2]): < 50% | DC50 (SMARCA2 [2]): > 1 µM

COc1ccccc1-c1cc(N2CC3CCC(C2)N3c2ncc(C3CCN(CCCNC(=O)COc4ccc5c(c4)CCCN5C(=O)CCl)CC3)cn2)c(N)nn1 [I-527]
Dmax (SMARCA2 [2]): < 50% | DC50 (SMARCA2 [2]): > 1 µM

Nc1nnc(-c2ccccc2O)cc1N1CC2CCC(C1)N2c1ncc(C2CCN(CCCCNC(=O)COc3ccc4c(c3)CCCN4C(=O)CCl)CC2)cn1 [I-528]
Dmax (SMARCA2 [2]): < 50% | DC50 (SMARCA2 [2]): > 1 µM

Nc1nnc(-c2ccccc2O)cc1N1CC2CCC(C1)N2c1ncc(C2CCN(CCCCCCNC(=O)COc3ccc4c(c3)CCCN4C(=O)CCl)CC2)cn1 [I-529]
Dmax (SMARCA2 [2]): < 50% | DC50 (SMARCA2 [2]): > 1 µM

Nc1nnc(-c2ccccc2O)cc1N1CC2CCC(C1)N2c1ncc(C2CCN(CCCCOc3ccc(Oc4ccc(N(Cc5ccccc5)C(=O)CCl)cc4)cc3)CC2)cn1 [I-530]
Dmax (SMARCA2 [2]): < 50% | DC50 (SMARCA2 [2]): > 1 µM

Nc1nnc(-c2ccccc2O)cc1N1CC2CCC(C1)N2c1ncc(C2CCN(CCCCCCOc3ccc(Oc4ccc(N(Cc5ccccc5)C(=O)CCl)cc4)cc3)CC2)cn1 [I-531]
Dmax (SMARCA2 [2]): < 50% | DC50 (SMARCA2 [2]): > 1 µM

Nc1nnc(-c2ccccc2O)cc1N1CC2CCC(C1)N2c1ncc(C2CCN(CCCCCCCCOc3ccc(Oc4ccc(N(Cc5ccccc5)C(=O)CCl)cc4)cc3)CC2)cn1 [I-532]
Dmax (SMARCA2 [2]): 50 to 70% | DC50 (SMARCA2 [2]): > 1 µM

Nc1nnc(-c2ccccc2O)cc1N1CC2CCC(C1)N2c1ncc(C2CCN(CCCCCCCCCCOc3ccc(Oc4ccc(N(Cc5ccccc5)C(=O)CCl)cc4)cc3)CC2)cn1 [I-533, N-(4-(4-((10-(4-(2-(3-(3-amino-6-(2-hydroxyphenyl)pyridazin-4-yl)-3,8-diazabicyclo[3.2.1]octan-8-yl)pyrimidin-5-yl)piperidin-1-yl)decyl)oxy)phenoxy)phenyl)-N-benzyl-2-chloroacetamide]
Dmax (SMARCA2 [2]): < 50% | DC50 (SMARCA2 [2]): > 1 µM

CC(C)(C)[C@H](NC(=O)[C@H]1CC2(C1)C[C@H](N1CCC(c3cnc(N4C5CCC4CN(c4cc(-c6ccccc6O)nnc4N)C5)nc3)CC1)C2)C(=O)N1C[C@H](O)C[C@H]1C(=O)NOc1ccc(-c2ccccc2F)cc1 (stereo partly drawn) [I-538, (2S,4R)-1-[(2S)-2-[[2-[4-[2-[3-[3-amino-6-(2-hydroxyphenyl)pyridazin-4-yl]-3,8-diazabicyclo[3.2.1]octan-8-yl]pyrimidin-5-yl]-1-piperidyl]spiro[3.3]heptane-6-carbonyl]amino]-3,3-dimethyl-butanoyl]-N-[4-(2-fluorophenyl)phenoxy]-4-hydroxy-pyrrolidine-2-carboxamide]
DC50 (SMARCA2 [2]): > 1 µM
